The results in this text go back to US11542261B2, “Substituted Imidazo[1,2-a]-pyridines as IRAK 1/4 and FLT3 inhibitors” (CHILDREN'S HOSPITAL MEDICAL CENTER, priority 2016, dated 2023).

Series [1] can be described thus: Rat microsomal stability (RLM). The series is classed as in vitro ADME. The conditions noted are these: Table 10.
Series [2] has as its system THP-1 cells. Nature of the series: Inhibitory activity against THP-1 cells. Type of series: cell-based. Particulars: THP-1 cells (FLT3 wild type AML); data not shown.
Series [3] relates to MLL-AF9/FLT3-ITD cells. Type of series: cell-based. The conditions noted are these: Homo sapiens, MLL-AF9, Table 10.
Series [4] has as its system MLL-AF9 NRas cells. Kind of series: NRAS IC50 (MLL-AF9 NRas cells). The series is classed as cell-based. The conditions noted are these: Table 10.
In series [5] the target is IRAK1 (Homo sapiens (Human), UniProt P51617). Kind of series: HotSpot kinase IC50 assay. The series is classed as biochemical. The conditions noted are these: 10 μM ATP.
In series [6] the target is IRAK4 (Homo sapiens (Human), UniProt Q9NWZ3). Kind of series: HotSpot kinase IC50 assay. Particulars: 10 μM ATP. Type of series: biochemical.

`Clc1ccc2ncc(-c3cccc(NC4CCNCC4)n3)n2c1` [Compound I-2, 6-(6-chloroimidazo[1,2-a]pyridin-3-yl)-N-(piperidin-4-yl)pyridin-2-amine]: the Stability in series [1] is more than 30.0 min. Also, the “concentration without any inhibitory activity” value in series [2] was more than 10 µM.

Turning to `c1cc(NC2CNC2)nc(-c2cnc3ccccn23)c1` [Compound I-12, N-(azetidin-3-yl)-6-(imidazo[1,2-a]pyridin-3-yl)pyridin-2-amine], the Stability in series [1] is more than 30.0 min.

For orientation: IC50 means the concentration needed to halve the response being measured. High values mean weaker potency in that assay, low ones greater potency in that assay. For the compound `Clc1ccc2ncc(-c3cccc(NC4CNC4)n3)n2c1` [Compound I-15, N-(azetidin-3-yl)-6-(6-chloroimidazo[1,2-a]pyridin-3-yl)pyridin-2-amine], the IC50 was determined as 1180 nM in series [3] and 16600 nM in series [4].

In series [4], `Clc1ccc2ncc(-c3cccc(NC4CCNC4)n3)n2c1` (stereo not shown) [Compound I-16, 6-(6-chloroimidazo[1,2-a]pyridin-3-yl)-N-(pyrrolidin-3-yl)pyridin-2-amine] showed an IC50 of 1760 nM. In other words, the single-digit micromolar range.

In series [1], `Clc1ccc2ncc(-c3cccc(NC4CCCNC4)n3)n2c1` (stereo not shown) [Compound I-17, 6-(6-chloroimidazo[1,2-a]pyridin-3-yl)-N-(piperidin-3-yl)pyridin-2-amine] had a Stability of more than 30.0 min.

As for `COc1cc2ncc(-c3cccc(NC4CCNC4)n3)n2cc1Cl` (stereo not shown) [Compound I-21, 6-(6-chloro-7-methoxyimidazo[1,2-a]pyridin-3-yl)-N-(pyrrolidin-3-yl)pyridin-2-amine], the Stability in series [1] came to 27 min.

Compound `COc1cc2ncc(-c3cccc(NC4CCNC4)n3)n2cc1-c1ccncc1` (stereo not shown) [Compound I-23, 6-(7-methoxy-6-(pyridin-4-yl)imidazo[1,2-a]pyridin-3-yl)-N-(pyrrolidin-3-yl)pyridin-2-amine] had an IC50 in series [4] of 1830 nM. For the same compound, the Stability in series [1] is listed as more than 30.0 min.

The compound `COc1cc2ncc(-c3cccc(NC4CCNC4)n3)n2cc1-c1c(C)n[nH]c1C` (stereo not shown) [Compound I-25, 6-(6-(3,5-dimethyl-1H-pyrazol-4-yl)-7-methoxyimidazo[1,2-a]pyridin-3-yl)-N-(pyrrolidin-3-yl)pyridin-2-amine] yielded an IC50 in series [4] of 15700 nM. Besides, the Stability in series [1] was more than 30.0 min.

As to `COc1cc2ncc(-c3cccc(NC4CCNC4)n3)n2cc1-c1cnn(CCN2CCOCC2)c1` (stereo not shown) [Compound I-26], the values for the IC50 in series [3] and in series [4] were 20 nM and 15700 nM, respectively. In series [1], this compound had a Stability of more than 30.0 min.

`COc1cc2ncc(-c3cccc(NC4CCNC4)n3)n2cc1-c1cc[nH]c1` (stereo not shown) [Compound I-27, 6-(7-methoxy-6-(1H-pyrrol-3-yl)imidazo[1,2-a]pyridin-3-yl)-N-(pyrrolidin-3-yl)pyridin-2-amine] gave a concentration for half-maximal inhibition (IC50) in series [4] of 4430 nM. This compound also registered a Stability in series [1] of more than 30.0 min.

In turn, `COc1cc2ncc(-c3cccc(NC4CCNC4)n3)n2cc1-c1c(C)noc1C` (stereo not shown) [Compound I-28, 6-(6-(3,5-dimethylisoxazol-4-yl)-7-methoxyimidazo[1,2-a]pyridin-3-yl)-N-(pyrrolidin-3-yl)pyridin-2-amine] gave an IC50 in series [4] of 14800 nM.

Turning to `COc1cc2ncc(-c3cccc(NC4CCCNC4)n3)n2cc1-c1cn[nH]c1` (stereo not shown) [Compound I-29, 6-(7-methoxy-6-(1H-pyrazol-4-yl)imidazo[1,2-a]pyridin-3-yl)-N-(piperidin-3-yl)pyridin-2-amine], in series [4], the concentration for half-maximal inhibition (IC50) worked out at 9350 nM. For the same compound, the Stability in series [1] turned out to be 9.8 min.

Turning to `COc1cc2ncc(-c3cccc(N(C)C4CCNC4)n3)n2cc1-c1cn[nH]c1` (stereo not shown) [Compound I-31, 6-(7-methoxy-6-(1H-pyrazol-4-yl)imidazo[1,2-a]pyridin-3-yl)-N-methyl-N-(pyrrolidin-3-yl)pyridin-2-amine], in series [4], half-maximal inhibition (IC50) was put at 16600 nM. In other words, the double-digit micromolar range.

For `COc1cc2ncc(-c3cccc(OC4CCNC4)n3)n2cc1-c1cn[nH]c1` (stereo not shown) [Compound I-32, 7-methoxy-6-(1H-pyrazol-4-yl)-3-(6-(pyrrolidin-3-yloxy)pyridin-2-yl)imidazo[1,2-a]pyri-dine], in series [4], half-maximal inhibition (IC50) required 3720 nM. This compound came in with a Stability in series [1] of 7.7 min.

Regarding `COc1cc2ncc(-c3nc(NC4CCNC4)c(F)cc3F)n2cc1-c1cn[nH]c1` (stereo not shown) [Compound I-33, 3,5-difluoro-6-(7-methoxy-6-(1H-pyrazol-4-yl)imidazo[1,2-a]pyridin-3-yl)-N-(pyrrolidin-3-yl)pyridin-2-amine], 29800 nM corresponded to half-maximal inhibition in series [4] (IC50). The Stability in series [1] is recorded as 9.3 min.

Take `COc1cc2ncc(-c3cccc(NC4CCNC4)n3)n2cc1OC` (stereo not shown) [Compound I-36]: the half-inhibitory concentration (IC50) in series [3] amounted to 17 nM; in series [4], 4430 nM. In series [1], this compound displayed a Stability of more than 30.0 min.

In the case of `COc1cc(-c2cn[nH]c2)cn2c(-c3cccc(NC4CCNC4)n3)cnc12` (stereo not shown) [Compound I-37], the IC50 in series [3] is 2220 nM; in series [4], 16600 nM. In addition, the Stability in series [1] came to 2.3 min.

As for `COc1cc2ncc(-c3cccc(NC4CCNC4)n3)n2cc1-c1nnn[nH]1` (stereo not shown) [Compound I-38], the IC50 in series [3] is 6260 nM; in series [4], 2 nM. In series [1], this compound had a Stability of more than 30.0 min.

Turning to `COc1cc2ncc(-c3cccc(NC4CCNC4)n3)n2cc1C#N` (stereo not shown) [Compound I-39], the 50% inhibitory concentration (IC50) in series [3] is 33 nM; in series [4] it was 5580 nM. Further, the Stability in series [1] came out at 8.8 min.

In the case of `Clc1cn2c(-c3cccc(NC4CCNC4)n3)cnc2cc1OCCN1CCOCC1` (stereo not shown) [Compound I-40], the IC50 is 8 nM in series [3] and 626 nM in series [4]. The compound also gave a Stability in series [1] of more than 30.0 min.

The compound `c1cc(NC2CCNC2)nc(-c2cnc3cc(OCCN4CCOCC4)c(-c4cn[nH]c4)cn23)c1` (stereo not shown) [Compound I-41, 6-(7-(2-morpholinoethoxy)-6-(1H-pyrazol-4-yl)imidazo[1,2-a]pyridin-3-yl)-N-(pyrrolidin-3-yl)pyridin-2-amine] came in with a 50% inhibitory concentration (IC50) in series [4] of 17600 nM. The Stability in series [1] is more than 30.0 min.

The compound `COc1cc(Cl)cn2c(-c3cccc(NC4CNC4)n3)cnc12` [Compound I-42, N-(azetidin-3-yl)-6-(6-chloro-8-methoxyimidazo[1,2-a]pyridin-3-yl)pyridin-2-amine] gave an IC50 in series [4] of 20900 nM.

In the case of `c1cc(N[C@@H]2CCNC2)nc(-c2cnc3ccc(-c4cn[nH]c4)cn23)c1` [Compound I-43], in series [3], the IC50 worked out at 76 nM.

Compound `c1cc(N[C@H]2CCNC2)nc(-c2cnc3ccc(-c4cn[nH]c4)cn23)c1` [Compound I-44] yielded an IC50 in series [3] of 17 nM.

For `c1cc(NC2CNC2)nc(-c2cnc3ccc(-c4cn[nH]c4)cn23)c1` [Compound I-45], the IC50 in series [3] was 460 nM; in series [4], 4290 nM.

Take `Cn1cc(-c2ccc3ncc(-c4cccc(NC5CNC5)n4)n3c2)cn1` [Compound I-46]: the IC50 in series [3] was determined as 213 nM; in series [4] it was 16600 nM. Further, in series [1], the Stability is recorded as more than 30.0 min.

In series [4], `Fc1cc(F)c(-c2cnc3ccc(Cl)cn23)nc1NC1CNC1` [Compound I-47] displayed an IC50 of 1880 nM. For the same compound, the Stability in series [1] is more than 30.0 min.

With `Cc1ccc(-c2cnc3ccc(Cl)cn23)nc1NC1CNC1` [Compound I-48], in series [3], the IC50 amounted to 2790 nM.

As to `Cc1ccc(NC2CNC2)nc1-c1cnc2ccc(Cl)cn12` [Compound I-49], in series [3], the IC50 stood at 892 nM.

In series [1], `COc1ccn2c(-c3cccc(NC4CNC4)n3)cnc2c1` [Compound I-50, N-(azetidin-3-yl)-6-(7-methoxyimidazo[1,2-a]pyridin-3-yl)pyridin-2-amine] returned a Stability of more than 30.0 min.

Compound `CN(c1cccc(-c2cnc3ccc(Cl)cn23)n1)C1CCNCC1` [Compound I-51] showed an IC50 in series [3] of 28 nM.

For `Brc1ccc2ncc(-c3cccc(NC4CNC4)n3)n2c1` [Compound I-52], in series [3], the IC50 worked out at 85 nM.

Compound `Clc1ccc2ncc(-c3cc(Br)cc(NC4CNC4)n3)n2c1` [Compound I-53] had an IC50 in series [3] of 4960 nM. Moreover, the Stability in series [1] is listed as more than 30.0 min.

In series [3], `c1cc(NC2CCNC2)nc(-c2cnc3ccc(-c4cn[nH]c4)cn23)c1` (stereo not shown) [Compound I-54, 6-(6-(1H-pyrazol-4-yl)imidazo[1,2-a]pyridin-3-yl)-N-(pyrrolidin-3-yl)pyridin-2-amine] came in with an IC50 of 107 nM.

Consider `CC(=O)N1CC(Nc2cccc(-c3cnc4ccc(Cl)cn34)n2)C1` [Compound I-57], for which, in series [3], the IC50 came to 399 nM. Further, in series [1], the Stability is more than 30.0 min.

The compound `O=C(c1ccccc1)N1CC(Nc2cccc(-c3cnc4ccc(Cl)cn34)n2)C1` [Compound I-58] came in with an IC50 in series [3] of 709 nM. Further, the Stability in series [1] turned out to be 8.0 min.

In turn, `N#CCC(=O)N1CC(Nc2cccc(-c3cnc4ccc(Cl)cn34)n2)C1` [Compound I-59] gave a 50% inhibitory concentration (IC50) in series [3] of 205 nM. Further, the Stability in series [1] was more than 30.0 min.

The compound `Cc1ccn2c(-c3cccc(NC4CNC4)n3)cnc2c1` [Compound I-61, N-(azetidin-3-yl)-6-(7-methylimidazo[1,2-a]pyridin-3-yl)pyridin-2-amine] registered a Stability in series [1] of more than 30.0 min.

Consider `Clc1cc2ncc(-c3cccc(NC4CNC4)n3)n2cc1Cl` [Compound I-62], for which, in series [3], half-maximal inhibition (IC50) required 154 nM. The compound also registered a Stability in series [1] of more than 30.0 min.

With `CCN1CCN(c2ccc3ncc(-c4cccc(NC5CNC5)n4)n3c2)CC1` [Compound I-64], the IC50 in series [3] was found to be 2000 nM.

As for `COc1cc(NC2CNC2)nc(-c2cnc3ccc(Cl)cn23)c1` [Compound I-67, N-(azetidin-3-yl)-6-(6-chloroimidazo[1,2-a]pyridin-3-yl)-4-methoxypyridin-2-amine], the Stability in series [1] was more than 30.0 min.

As to `CC(C)(C)c1cc(NC(=O)Nc2ccc(-c3cn4c(n3)sc3cc(OCCN5CCOCC5)ccc34)cc2)no1` [quizartinib], the IC50 entry in series [5] and in series [6] was “inactive” throughout.
